Here are results for 10 molecules from paper PMC3431846, “2,3-Dihydro-1H-cyclopenta[b]quinoline Derivatives as Acetylcholinesterase Inhibitors—Synthesis, Radiolabeling and Biodistribution” (International Journal of Molecular Sciences, 2012).

Usually IC50 stands for the point on the concentration scale where inhibition reaches its midpoint. A low value points to greater potency in that assay.

Where a name gives a salt, the structure may show the parent alone.

The subject of data set [1] is acetylcholinesterase. The following applies: in words; cited from earlier work.
The target of data set [2] is Butyrylcholinesterase from equine serum (Equus caballus, UniProt P81908). Description: biochemical.
Chain of Butyrylcholinesterase from equine serum (P81908 whole entry): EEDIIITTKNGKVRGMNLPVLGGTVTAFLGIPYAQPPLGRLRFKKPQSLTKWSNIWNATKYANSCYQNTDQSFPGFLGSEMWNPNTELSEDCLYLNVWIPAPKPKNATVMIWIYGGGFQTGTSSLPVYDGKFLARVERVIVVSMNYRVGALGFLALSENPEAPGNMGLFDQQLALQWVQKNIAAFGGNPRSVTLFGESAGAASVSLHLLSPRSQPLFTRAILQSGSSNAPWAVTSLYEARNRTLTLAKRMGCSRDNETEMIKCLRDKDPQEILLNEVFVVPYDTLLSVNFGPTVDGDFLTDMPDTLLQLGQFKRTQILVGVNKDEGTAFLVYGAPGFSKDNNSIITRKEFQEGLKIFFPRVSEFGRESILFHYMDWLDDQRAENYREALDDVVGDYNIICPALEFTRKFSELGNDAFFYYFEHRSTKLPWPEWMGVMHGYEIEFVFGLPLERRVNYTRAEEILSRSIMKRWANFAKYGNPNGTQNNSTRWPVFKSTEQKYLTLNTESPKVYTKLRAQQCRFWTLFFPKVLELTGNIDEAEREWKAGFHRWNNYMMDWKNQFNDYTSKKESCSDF
The target in data set [3] is Acetylcholinesterase from Electrophorus electricus (electric eel) (Electrophorus electricus, UniProt O42275). In words: biochemical.
Chain of Acetylcholinesterase from Electrophorus electricus (electric eel) (O42275 24-633): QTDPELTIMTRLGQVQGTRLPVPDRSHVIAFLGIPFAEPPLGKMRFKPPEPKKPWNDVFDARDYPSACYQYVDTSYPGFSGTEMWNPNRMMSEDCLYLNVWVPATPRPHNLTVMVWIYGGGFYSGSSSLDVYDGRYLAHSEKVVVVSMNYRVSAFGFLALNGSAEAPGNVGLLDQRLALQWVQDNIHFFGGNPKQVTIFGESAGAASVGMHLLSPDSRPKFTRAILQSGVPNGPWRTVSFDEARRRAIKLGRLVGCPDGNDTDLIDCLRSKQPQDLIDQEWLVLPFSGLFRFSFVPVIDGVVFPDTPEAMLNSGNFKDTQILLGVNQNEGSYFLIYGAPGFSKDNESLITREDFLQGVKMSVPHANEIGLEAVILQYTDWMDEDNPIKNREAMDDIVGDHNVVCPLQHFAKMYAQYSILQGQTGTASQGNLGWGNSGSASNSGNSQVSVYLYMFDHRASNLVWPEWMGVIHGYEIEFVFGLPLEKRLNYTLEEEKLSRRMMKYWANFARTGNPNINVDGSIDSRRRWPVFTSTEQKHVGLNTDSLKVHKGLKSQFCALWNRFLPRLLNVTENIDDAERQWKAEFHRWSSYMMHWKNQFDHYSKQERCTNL
A short description of data set [4]: Biodistribution of radioactivity in rats after intravenous 99mTc-6a. To be noted: 99mTc-labelled, in words.
Protocol: For biodistribution studies, male Wistar rats weighing 190–260 g were used. Prior to the experiment, the animals were fasted overnight (to empty the bowels), but had free access to water. All animal experiments were approved by the Ethics Committee of the Faculty of Pharmacy, Charles University, Hradec Kralove.
The agent was administered to rats intravenously in a volume of 0.2 mL. During the course of the experiments, each animal was placed in an individual cage. At various time points after injection, the carotid artery was exposed under ether anesthesia and a blood sample was collected in glass tubes containing dry heparin. The rats were sacrificed and dissected.
The results were expressed as mean ± standard deviations of at least four animals.

For `Nc1c2c(nc3cc(Cl)ccc13)CCCC2O` (stereo not shown) [6-chlorotacrin-1-ol], the “potency compared with tacrine” value in data set [1] is reported as “more potent than tacrine”.

In the case of `Nc1c2c(nc3cc(F)ccc13)CCCC2O` (stereo not shown) [6-fluorotacrin-1-ol], the “potency compared with tacrine” value in data set [1] is “more potent than tacrine”. For `Cl.NNc1ccc(C(=O)NCCNc2c3c(nc4ccccc24)CCC3)cn1` [Compound 6a, 6-Hydrazino-N-[2-(2,3-dihydro-1H-cyclopenta[b]quinolin-9-ylamino)Ethyl]nicotinamide hydrochloride], the 50% inhibitory concentration (IC50) in data set [2] was 164 ± 1.6 nM; in data set [3], 31.5 ± 1.9 nM. Also, in data set [4], the blood radioactivity clearance result is recorded as “comparatively rapid”. For `NNc1ccc(C(=O)NCCCNc2c3c(nc4ccccc24)CCC3)cn1` [Compound 6b, 6-Hydrazino-N-[3-(2,3-dihydro-1H-cyclopenta[b]quinolin-9-ylamino)propyl]nicotinamide hydrochloride], the IC50 is 197 ± 3.4 nM in data set [2] and 19.3 ± 1.1 nM in data set [3]. In the same order, the values of `NNc1ccc(C(=O)NCCCCNc2c3c(nc4ccccc24)CCC3)cn1` [Compound 6c, 6-Hydrazino-N-[4-(2,3-dihydro-1H-cyclopenta[b]quinolin-9-ylamino)butyl]nicotinamide hydrochloride] are 2650 ± 9.5 nM and 22.4 ± 1.7 nM. Turning to `NNc1ccc(C(=O)NCCCCCNc2c3c(nc4ccccc24)CCC3)cn1` [Compound 6d, 6-Hydrazino-N-[5-(2,3-dihydro-1H-cyclopenta[b]quinolin-9-ylamino)pentyl]nicotinamide hydrochloride], the 50% inhibitory concentration (IC50) in data set [2] was determined as 4240 ± 2.2 nM; in data set [3] it was 7.84 ± 2.2 nM. In the same order, the values of `NNc1ccc(C(=O)NCCCCCCNc2c3c(nc4ccccc24)CCC3)cn1` [Compound 6e, 6-Hydrazino-N-[6-(2,3-dihydro-1H-cyclopenta[b]quinolin-9-ylamino)hexyl]nicotinamide hydrochloride] are 16600 ± 17.5 nM and 41.6 ± 1 nM. Take `NNc1ccc(C(=O)NCCCCCCCNc2c3c(nc4ccccc24)CCC3)cn1` [Compound 6f, 6-Hydrazino-N-[7-(2,3-dihydro-1H-cyclopenta[b]quinolin-9-ylamino)heptyl]nicotinamide hydrochloride]: the values for the IC50 in data set [2] and in data set [3] were 22700 ± 20.6 nM and 17.6 ± 0.8 nM, respectively. Regarding `NNc1ccc(C(=O)NCCCCCCCCNc2c3c(nc4ccccc24)CCC3)cn1` [Compound 6g, 6-Hydrazino-N-[8-(2,3-dihydro-1H-cyclopenta[b]quinolin-9-ylamino)octyl]nicotinamide hydrochloride], the values for the IC50 in data set [2] and in data set [3] were 19600 ± 16.4 nM and 5.17 ± 1.4 nM, respectively. As for `NNc1ccc(C(=O)NCCCCCCCCCNc2c3c(nc4ccccc24)CCC3)cn1` [Compound 6h, 6-Hydrazino-N-[9-(2,3-dihydro-1H-cyclopenta[b]quinolin-9-ylamino)nonyl]nicotinamide hydrochloride], the figures for the IC50 in data set [2] and in data set [3] were 17100 ± 21.3 nM and 3.65 ± 0.5 nM, respectively.
